Results as given in US20060210478A1, “Steady state perfusion methods” (priority 2005, published 2006).

Assays:
domestic pig [1] = conditions: pig with 80-90% LCX stenosis; 0.05 mmol/kg i.v.; 0.25 mg/kg/min adenosine; confirmed by fluorescent microspheres post-mortem
Source text: (§1) A domestic pig (approx 60 kg B.W.) is anesthetized and intubated. The animal undergoes surgical intervention to partially occlude the distal portion of the left circumflex coronary artery (LCX). A calibrated angioplasty balloon is delivered by catheter, guided by X-ray fluoroscopy, from the femoral artery to the heart. It is advanced into the Left Circumflex coronary artery and inflated to create the equivalent of an 80-90% stenosis. The balloon catheter will remain inflated and at a constant inflation pressure for the duration of the imaging procedure, to simulate a static lesion and stenosis in the coronary artery.
The pig is then transported to the MRI suite and remains under general anesthesia and intubated for the duration of the imaging examination. Sufficient MRI scout scans to plan the myocardial imaging are aquired. 0.05 mmol/kg of MS-325 is administered as a single intraveneous injection. Enough time (ca. 10 minutes) for the agent to achieve equilibrium in the blood elapses before perfusion imaging.
Perfusion imaging is performed using a gradient echo method in order to sensitize the MRI to the lowered T1 of the imaging agent (TR=5.0 ms, FA=12°). Three 10 mm short-axis slices are acquired, so that 16 of the 17 AHA/ACC myocardial segments can be visualized. […]

domestic pig [2] = conditions: pig with 80-90% LCX stenosis; 0.05 mmol/kg i.v.; 0.25 mg/kg/min adenosine; confirmed by fluorescent microspheres post-mortem; remark: listed apart in the source
Source text: as §1
The pig is then transported to the MRI suite and remains under general anesthesia and intubated for the duration of the imaging examination. Sufficient MRI scout scans to plan the myocardial imaging are aquired. […] Enough time (ca. 10 minutes) for the agent to achieve equilibrium in the blood elapses before perfusion imaging commences.
Perfusion imaging is performed using a gradient echo method in order to sensitize the MRI to the lowered T1 of the imaging agent (TR=3.2 ms, FA=12°). Three short-axis 10 mm slices are acquired, so that 16 of the 17 AHA/ACC myocardial segments can be visualized. In this implementation, cardiac-triggering is employed to control heart motion and breathing is suspended to eliminate diaphragmatic motion. […]

domestic pig [3] = conditions: pig with 80-90% LCX stenosis, 0.05 mmol/kg i.v.
Source text: A domestic pig (approx 50 kg B.W.) is anesthetized and intubated. The animal undergoes surgical intervention to partially occlude the distal portion of the left circumflex coronary artery (LCX). A calibrated angioplasty balloon is delivered by catheter, guided by X-ray fluoroscopy, from the femoral artery to the heart. It is advanced into the left circumflex coronary artery and inflated to create the equivalent of an 80-90% stenosis. The balloon catheter will remain inflated and at a constant inflation pressure for the duration of the imaging procedure, to simulate a static lesion and stenosis in the coronary artery.
The pig is then transported to the MRI suite and remains under general anesthesia and intubated for the duration of the imaging examination. Sufficient MRI scout scans to plan the myocardial imaging are acquired. Then 0.05 mmol/kg of MS-325 is administered as a single intraveneous injection. Enough time (ca. 10 minutes) for the agent to achieve equilibrium in the blood elapses before imaging commences.
Perfusion imaging is performed using a saturation-recovery gradient echo methods in order to sensitize the MRI to the lowered T1 of the imaging agent. Three short-axis slices (7.5 mm, with 7.5 mm slice separations) are acquired, so that 16 of the 17 AHA/ACC myocardial segments can be visualized. […]

## O=C([O-])CN(CCN(CC(=O)[O-])C[C@H](COP(=O)([O-])OC1CCC(c2ccccc2)(c2ccccc2)CC1)N(CC(=O)[O-])CC(=O)[O-])CC(=O)[O-].[Gd+3].[H+].[H+].[H+] [MS-325]
Domestic pig [1]
  Analysis of MR images during adenosine stress: a hypo-intense region in the myocardial wall
Domestic pig [2]
  Analysis of MR images during vasodilatory stress: a hypo-intense region in the wall of the left ventricle
Domestic pig [3]; after 5 minutes of 0.25 mg/kg/min adenosine infusion
  Corresponding image during stress: a greater degree of negative contrast with the remaining myocardial wall
Domestic pig [3]; imaging ca. 10 minutes after injection, before adenosine
  Analysis of MR images (perfusion imaging at rest): a suspicious hypo-intense region in the anterior wall of the left ventrical
